Experimental data reported in US20260049076A1, “Tertiary Amine Substituted Bicyclic Compounds Useful as T Cell Activators” (BRISTOL-MYERS SQUIBB COMPANY, priority 2022, published 2026).

Key:
human DGKα = biological target: T1, human DGKα (Homo sapiens, UniProt P23743); assay: In vitro DGK inhibition assay, DGKα liposome (LIPGLO) assay; type: biochemical; details: read-out: Enzyme Inhibition DGKalpha IC50
T1 construct: TVMV protease cleavage site (C); Hexa-His (C); made in house; host or cells: Sf9 insect cells (baculovirus)
Outline: (§1)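 Baculovirus/Sf9-expressed His-tagged human DGKα or DGKζ (5 nM) on extruded liposomes (2 mM PS, 0.25 mM DAG, 2.75 mM PC) in MOPS pH 7.5 with MgCl2, CaCl2 and 150 μM ATP, 1 h.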

human DGKζ = biological target: T2, human DGKζ (Homo sapiens, UniProt Q13574); assay: In vitro DGK inhibition assay, DGKζ liposome (LIPGLO) assay; type: biochemical; details: read-out: Enzyme Inhibition DGKzeta IC50
T2 construct: TVMV protease cleavage site (C); Hexa-His (C); made in house; host or cells: Sf9 insect cells (baculovirus)
Outline: as §1

DGKalpha = DGKalpha (Homo sapiens, UniProt P23743); assay: Translocation DGKalpha; type: cell-based
DGKzeta = DGKzeta (Homo sapiens, UniProt Q13574); assay: Translocation DGKzeta; type: cell-based
DGKzeta, sequence (Q13574 whole entry): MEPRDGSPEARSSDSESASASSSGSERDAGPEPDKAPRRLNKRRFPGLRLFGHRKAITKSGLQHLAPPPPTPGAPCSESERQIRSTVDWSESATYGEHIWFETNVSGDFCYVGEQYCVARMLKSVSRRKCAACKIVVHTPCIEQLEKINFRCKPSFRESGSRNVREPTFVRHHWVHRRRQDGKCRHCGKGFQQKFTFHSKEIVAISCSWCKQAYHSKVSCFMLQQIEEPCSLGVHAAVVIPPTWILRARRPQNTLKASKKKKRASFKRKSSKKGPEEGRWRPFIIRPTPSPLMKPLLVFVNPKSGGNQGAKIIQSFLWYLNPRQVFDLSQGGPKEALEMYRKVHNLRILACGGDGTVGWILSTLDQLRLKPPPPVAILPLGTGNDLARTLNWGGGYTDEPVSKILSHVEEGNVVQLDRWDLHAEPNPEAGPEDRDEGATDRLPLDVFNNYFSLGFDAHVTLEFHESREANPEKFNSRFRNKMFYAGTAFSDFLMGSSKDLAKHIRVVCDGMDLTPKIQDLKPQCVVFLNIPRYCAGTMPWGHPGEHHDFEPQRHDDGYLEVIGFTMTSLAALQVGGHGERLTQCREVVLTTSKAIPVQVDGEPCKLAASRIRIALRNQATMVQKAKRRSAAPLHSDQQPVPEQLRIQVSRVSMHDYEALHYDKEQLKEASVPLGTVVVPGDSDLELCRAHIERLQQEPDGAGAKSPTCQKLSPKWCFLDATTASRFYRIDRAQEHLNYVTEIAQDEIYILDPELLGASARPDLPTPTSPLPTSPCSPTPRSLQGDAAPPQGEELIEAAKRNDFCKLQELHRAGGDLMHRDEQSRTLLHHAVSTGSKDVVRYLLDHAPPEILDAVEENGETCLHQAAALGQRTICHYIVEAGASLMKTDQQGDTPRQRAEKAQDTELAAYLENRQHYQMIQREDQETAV

T1 sequence (P23743 with tags, fused parts or gaps): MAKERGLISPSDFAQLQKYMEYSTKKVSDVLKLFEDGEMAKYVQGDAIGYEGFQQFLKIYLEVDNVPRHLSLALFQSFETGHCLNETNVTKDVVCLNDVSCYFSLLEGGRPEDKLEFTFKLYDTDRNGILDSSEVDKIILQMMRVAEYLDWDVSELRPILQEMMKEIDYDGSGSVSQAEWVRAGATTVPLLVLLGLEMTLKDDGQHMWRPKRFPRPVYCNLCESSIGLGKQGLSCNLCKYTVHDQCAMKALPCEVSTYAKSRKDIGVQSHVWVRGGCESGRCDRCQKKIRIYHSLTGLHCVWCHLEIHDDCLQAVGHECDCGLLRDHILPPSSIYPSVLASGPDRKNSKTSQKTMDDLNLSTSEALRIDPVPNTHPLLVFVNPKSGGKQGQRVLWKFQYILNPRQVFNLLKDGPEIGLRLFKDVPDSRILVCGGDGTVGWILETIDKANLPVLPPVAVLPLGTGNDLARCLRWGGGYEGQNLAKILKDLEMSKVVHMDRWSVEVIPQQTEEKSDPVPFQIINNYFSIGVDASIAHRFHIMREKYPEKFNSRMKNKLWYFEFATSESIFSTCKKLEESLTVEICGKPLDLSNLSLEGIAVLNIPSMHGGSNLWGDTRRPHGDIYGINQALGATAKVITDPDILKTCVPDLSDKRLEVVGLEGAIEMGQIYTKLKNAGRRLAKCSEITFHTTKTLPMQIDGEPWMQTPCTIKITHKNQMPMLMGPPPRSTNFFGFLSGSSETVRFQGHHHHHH
DGKalpha, sequence (P23743 whole entry): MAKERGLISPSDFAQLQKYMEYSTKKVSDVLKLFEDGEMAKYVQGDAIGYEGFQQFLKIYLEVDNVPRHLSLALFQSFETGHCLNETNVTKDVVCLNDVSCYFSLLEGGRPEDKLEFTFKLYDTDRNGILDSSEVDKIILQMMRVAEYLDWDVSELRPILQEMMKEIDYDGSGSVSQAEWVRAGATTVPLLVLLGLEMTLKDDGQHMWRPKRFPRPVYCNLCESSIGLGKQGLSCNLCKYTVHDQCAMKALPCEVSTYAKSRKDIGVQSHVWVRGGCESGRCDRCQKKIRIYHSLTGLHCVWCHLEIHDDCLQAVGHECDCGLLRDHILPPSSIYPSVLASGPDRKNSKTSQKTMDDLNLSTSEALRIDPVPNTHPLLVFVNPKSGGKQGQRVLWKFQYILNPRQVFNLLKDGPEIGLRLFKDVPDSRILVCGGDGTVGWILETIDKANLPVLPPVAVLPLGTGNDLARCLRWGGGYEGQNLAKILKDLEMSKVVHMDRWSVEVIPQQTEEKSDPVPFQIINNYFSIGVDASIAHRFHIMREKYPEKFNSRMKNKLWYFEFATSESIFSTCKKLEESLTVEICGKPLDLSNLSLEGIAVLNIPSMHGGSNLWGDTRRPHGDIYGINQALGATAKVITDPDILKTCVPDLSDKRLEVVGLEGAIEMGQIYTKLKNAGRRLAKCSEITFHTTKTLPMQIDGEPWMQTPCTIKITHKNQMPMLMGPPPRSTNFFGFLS
T2 sequence (Q13574 with tags, fused parts or gaps isoform Q13574-4): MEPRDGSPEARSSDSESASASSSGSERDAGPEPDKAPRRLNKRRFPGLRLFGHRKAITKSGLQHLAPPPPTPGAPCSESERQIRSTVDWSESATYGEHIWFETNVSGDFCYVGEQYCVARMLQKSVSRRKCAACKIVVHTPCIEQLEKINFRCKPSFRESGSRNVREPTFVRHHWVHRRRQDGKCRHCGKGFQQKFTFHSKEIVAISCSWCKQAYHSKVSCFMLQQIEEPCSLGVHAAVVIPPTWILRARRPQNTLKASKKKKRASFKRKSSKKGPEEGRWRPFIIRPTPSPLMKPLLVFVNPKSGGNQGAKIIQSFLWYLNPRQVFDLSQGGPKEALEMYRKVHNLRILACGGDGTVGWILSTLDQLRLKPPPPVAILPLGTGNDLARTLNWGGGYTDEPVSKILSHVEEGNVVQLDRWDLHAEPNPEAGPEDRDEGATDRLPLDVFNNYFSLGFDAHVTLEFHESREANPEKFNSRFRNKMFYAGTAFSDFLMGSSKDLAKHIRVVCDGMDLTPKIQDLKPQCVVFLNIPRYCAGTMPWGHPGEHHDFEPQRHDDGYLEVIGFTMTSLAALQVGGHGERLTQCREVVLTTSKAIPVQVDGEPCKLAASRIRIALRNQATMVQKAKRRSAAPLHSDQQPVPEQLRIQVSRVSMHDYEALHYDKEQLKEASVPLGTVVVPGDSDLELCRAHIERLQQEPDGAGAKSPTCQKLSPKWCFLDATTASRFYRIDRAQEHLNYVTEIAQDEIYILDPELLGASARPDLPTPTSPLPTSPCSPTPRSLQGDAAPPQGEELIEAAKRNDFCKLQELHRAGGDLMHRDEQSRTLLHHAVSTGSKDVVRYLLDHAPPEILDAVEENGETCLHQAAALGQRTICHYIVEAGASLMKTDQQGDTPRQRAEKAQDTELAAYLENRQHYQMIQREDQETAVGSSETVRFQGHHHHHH

IC50 (human DGKα) [µM]	IC50 (human DGKζ) [µM]	EC50 (DGKalpha) [µM]	EC50 (DGKzeta) [µM]	SMILES
0.26	0.23	2.7	5	Cn1c(=O)cc(N(CC2CC2)c2ccc(Br)cc2)c2nc(C#N)ccc21 [Example 18, 8-[(4-bromophenyl)(cyclopropylmethyl)amino]-5-methyl-6-oxo-5,6-dihydro-1,5-naphthyridine-2-carbonitrile]
1.1	0.35	10	5	Cn1c(=O)cc(N(CC2CC2)c2ccc(OCC(F)(F)F)cc2)c2nc(C#N)ccc21 [Example 37, 8-((cyclopropylmethyl)(4-(2,2,2-trifluoroethoxy)phenyl)amino)-5-methyl-6-oxo-5,6-dihydro-1,5-naphthyridine-2-carbonitrile]
3.8	2.9	0.75	0.54	Cc1ccc(N(CC2CC2)c2cc(=O)n(C)c3ccc(C#N)nc23)cc1 [Example 62, 8-((cyclopropylmethyl)(p-tolyl)amino)-5-methyl-6-oxo-5,6-dihydro-1,5-naphthyridine-2-carbonitrile]
1.9	2.7	1.1	0.57	Cn1c(=O)cc(N(CC2CC2)c2ccc3occc3c2)c2nc(C#N)ccc21 [Example 65, 8-(benzofuran-5-yl (cyclopropylmethyl)amino)-5-methyl-6-oxo-5,6-dihydro-1,5-naphthyridine-2-carbonitrile]
4.7	1.1	> 3	0.091	Cn1c(=O)cc(N(CC2CC2)c2ccc(OC(F)F)nc2)c2nc(C#N)ccc21 [Example 112, 8-((cyclopropylmethyl)(6-(difluoromethoxy)pyridin-3-yl)amino)-5-methyl-6-oxo-5,6-dihydro-1,5-naphthyridine-2-carbonitrile]
4.8	29	> 3	0.25	Cc1cc(C2CC2)ccc1N(CC1CC1)c1cc(=O)n(C)c2ccc(C#N)nc12 [Example 113, 8-((4-cyclopropyl-2-methylphenyl) (cyclopropylmethyl)amino)-5-methyl-6-oxo-5,6-dihydro-1,5-naphthyridine-2-carbonitrile]
7.9	1.4	> 3	0.13	Cn1c(=O)cc(N(CC2CC2)c2ccc(C3CC3)nc2)c2nc(C#N)ccc21 [Example 114, 8-((cyclopropylmethyl)(6-cyclopropylpyridin-3-yl)amino)-5-methyl-6-oxo-5,6-dihydro-1,5-naphthyridine-2-carbonitrile]
8.7	2.4	> 3	0.11	CN(C)c1ccc(N(CC2CC2)c2cc(=O)n(C)c3ccc(C#N)nc23)cc1 [Example 116, 8-((cyclopropylmethyl)(4-(dimethylamino)phenyl)amino)-5-methyl-6-oxo-5,6-dihydro-1,5-naphthyridine-2-carbonitrile]
8.8	4.7	> 3	0.16	Cc1cc(N(CC2CC2)c2cc(=O)n(C)c3ccc(C#N)nc23)ccc1OC(F)F [Example 117, 8-((cyclopropylmethyl)(4-(difluoromethoxy)-3-methylphenyl)amino)-5-methyl-6-oxo-5,6-dihydro-1,5-naphthyridine-2-carbonitrile]
13	6.9	0.92	0.33	Cn1c(=O)cc(N(CC2CC2)c2ccc3c(c2)OCCO3)c2nc(C#N)ccc21 [Example 120, 8-((cyclopropylmethyl)(2,3-dihydrobenzo[b][1,4]dioxin-6-yl)amino)-5-methyl-6-oxo-5,6-dihydro-1,5-naphthyridine-2-carbonitrile]
19	22	> 3	0.17	Cn1c(=O)cc(N(CC2CC2)c2ccc(C3CC3)c(-c3ccccc3)c2)c2nc(C#N)ccc21 [Example 122, 8-((6-cyclopropyl-[1,1′-biphenyl]-3-yl)(cyclopropylmethyl)amino)-5-methyl-6-oxo-5,6-dihydro-1,5-naphthyridine-2-carbonitrile]
24	1.2	> 3	0.64	Cn1c(=O)cc(N(CC2CC2)c2ccc(OC(F)F)cn2)c2nc(C#N)ccc21 [Example 123]
34	> 38	2.5	0.18	Cn1c(=O)cc(N(CC2CC2)c2ccc(C3CC3)c(-c3ccc(N4CCOCC4)cc3)c2)c2nc(C#N)ccc21 [Example 124, 8-((6-cyclopropyl-4′-morpholino-[1,1′-biphenyl]-3-yl)(cyclopropylmethyl)amino)-5-methyl-6-oxo-5,6-dihydro-1,5-naphthyridine-2-carbonitrile]
36	32	> 3	0.091	Cn1c(=O)cc(N(CC2CC2)c2ccc(C3CC3)c(-c3ccc(C4CC4)cc3)c2)c2nc(C#N)ccc21 [Example 125, 8-((cyclopropylmethyl)(4′,6-dicyclopropyl-[1,1′-biphenyl]-3-yl)amino)-5-methyl-6-oxo-5,6-dihydro-1,5-naphthyridine-2-carbonitrile]
> 38	17	> 3	0.085	Cn1c(=O)cc(N(CC2CC2)c2ccc(C3CC3)c(-c3cccc(F)c3)c2)c2nc(C#N)ccc21 [Example 126, 8-((6-cyclopropyl-3′-fluoro-[, 1′-biphenyl]-3-yl) (cyclopropylmethyl)amino)-5-methyl-6-oxo-5,6-dihydro-1,5-naphthyridine-2-carbonitrile]
> 38	18	> 3	0.1	Cn1c(=O)cc(N(CC2CC2)c2ccc(C3CC3)c(-c3ccc(F)cc3)c2)c2nc(C#N)ccc21 [Example 127, 8-((6-cyclopropyl-4′-fluoro-[1,1′-biphenyl]-3-yl)(cyclopropylmethyl)amino)-5-methyl-6-oxo-5,6-dihydro-1,5-naphthyridine-2-carbonitrile]
> 38	> 38	> 3	0.13	Cn1c(=O)cc(N(CC2CC2)c2ccc(C3CC3)c(-c3ccc(Cl)cc3)c2)c2nc(C#N)ccc21 [Example 128, 8-((4′-chloro-6-cyclopropyl-[1,1′-biphenyl]-3-yl)(cyclopropylmethyl)amino)-5-methyl-6-oxo-5,6-dihydro-1,5-naphthyridine-2-carbonitrile]
> 38	> 38	> 1.5	0.13	COc1cccc(-c2cc(N(CC3CC3)c3cc(=O)n(C)c4ccc(C#N)nc34)ccc2C2CC2)c1 [Example 129, 8-((6-cyclopropyl-3′-methoxy-[1,1′-biphenyl]-3-yl)(cyclopropylmethyl)amino)-5-methyl-6-oxo-5,6-dihydro-1,5-naphthyridine-2-carbonitrile]
> 38	> 38	> 3	0.16	Cn1c(=O)cc(N(CC2CC2)c2ccc(C3CC3)c(-c3ccc(C(N)=O)cc3)c2)c2nc(C#N)ccc21 [Example 130, 5′-((6-cyano-1-methyl-2-oxo-1,2-dihydro-1,5-naphthyridin-4-yl)(cyclopropylmethyl)amino)-2′-cyclopropyl-[1,1′-biphenyl]-4-carboxamide]
> 38	34	> 3	0.18	Cn1c(=O)cc(N(CC2CC2)c2ccc(C3CC3)c(-c3ccc(OCC4CC4)cc3)c2)c2nc(C#N)ccc21 [Example 131, 8-((6-cyclopropyl-4′-(cyclopropylmethoxy)-[1,1′-biphenyl]-3-yl) (cyclopropylmethyl)amino)-5-methyl-6-oxo-5,6-dihydro-1,5-naphthyridine-2-carbonitrile]
> 38	3.6	> 3	0.2	Cc1cc(N(CC2CC2)c2cc(=O)n(C)c3ccc(C#N)nc23)ccc1C1CC1 [Example 132]
> 38	4.4	> 3	0.58	CC(=O)N(C)c1ccc(N(CC2CC2)c2cc(=O)n(C)c3ccc(C#N)nc23)cc1 [Example 133]
